The target of one assay is T1, PIK3CA (Homo sapiens, UniProt P42336).
T1 construct: endogenous in cells; host or cells: Jurkat cell lysate
The assay is described as follows: In vitro ELISA target engagement assay for PIK3CA in Jurkat cellular lysate (competition with PIK3CA Biotin Probe). The class given is binding. The following applies: 1 hour at rt, then 500 nM PIK3CA Biotin Probe, read-out: Elisa Target Engagement Assay (TE50). A digest of the protocol: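 Competition format in Jurkat lysate: compound (serial dilutions, top 200 μM) for 1 h at rt, then 500 nM final biotinylated PIK3CA probe for 1 h at rt. Sandwich ELISA with capture antibody and Neutravidin-HRP luminescence read-out measured probe-labelled PIK3CA, giving TE50.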

For another assay, the target named is T2, PIK3CA_C242 (Homo sapiens, UniProt P42336).
T2 construct: endogenous in cells; host or cells: Jurkat cell lysate
T2 sequence (P42336 whole entry): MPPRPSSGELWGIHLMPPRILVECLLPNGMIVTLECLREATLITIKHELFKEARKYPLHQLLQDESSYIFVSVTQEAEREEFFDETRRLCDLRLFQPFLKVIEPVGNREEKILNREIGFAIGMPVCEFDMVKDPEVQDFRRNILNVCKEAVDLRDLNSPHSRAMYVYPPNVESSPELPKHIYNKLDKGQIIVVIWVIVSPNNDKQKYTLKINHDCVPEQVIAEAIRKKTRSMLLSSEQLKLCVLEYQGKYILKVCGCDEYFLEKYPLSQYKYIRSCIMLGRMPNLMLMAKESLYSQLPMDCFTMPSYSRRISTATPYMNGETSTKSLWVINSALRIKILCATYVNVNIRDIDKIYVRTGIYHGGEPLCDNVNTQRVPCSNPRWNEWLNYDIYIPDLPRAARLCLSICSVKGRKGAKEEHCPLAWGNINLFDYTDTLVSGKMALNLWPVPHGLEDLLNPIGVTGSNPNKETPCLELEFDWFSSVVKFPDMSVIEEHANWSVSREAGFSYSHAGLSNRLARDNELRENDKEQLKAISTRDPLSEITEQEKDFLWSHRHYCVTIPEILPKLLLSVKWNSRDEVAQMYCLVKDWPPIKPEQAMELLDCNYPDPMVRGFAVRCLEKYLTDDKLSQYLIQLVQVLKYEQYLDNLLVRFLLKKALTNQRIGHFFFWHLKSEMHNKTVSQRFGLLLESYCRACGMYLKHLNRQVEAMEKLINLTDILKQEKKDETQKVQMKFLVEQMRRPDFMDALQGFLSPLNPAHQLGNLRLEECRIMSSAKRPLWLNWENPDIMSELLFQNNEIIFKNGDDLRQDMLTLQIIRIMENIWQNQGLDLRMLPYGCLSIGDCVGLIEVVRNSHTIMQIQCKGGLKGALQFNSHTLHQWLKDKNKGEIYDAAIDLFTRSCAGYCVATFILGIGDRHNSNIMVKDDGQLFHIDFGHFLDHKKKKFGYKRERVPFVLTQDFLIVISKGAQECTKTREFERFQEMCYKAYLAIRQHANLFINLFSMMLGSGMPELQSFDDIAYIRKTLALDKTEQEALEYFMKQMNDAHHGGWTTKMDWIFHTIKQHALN
T2 sequence (P27986 whole entry partner): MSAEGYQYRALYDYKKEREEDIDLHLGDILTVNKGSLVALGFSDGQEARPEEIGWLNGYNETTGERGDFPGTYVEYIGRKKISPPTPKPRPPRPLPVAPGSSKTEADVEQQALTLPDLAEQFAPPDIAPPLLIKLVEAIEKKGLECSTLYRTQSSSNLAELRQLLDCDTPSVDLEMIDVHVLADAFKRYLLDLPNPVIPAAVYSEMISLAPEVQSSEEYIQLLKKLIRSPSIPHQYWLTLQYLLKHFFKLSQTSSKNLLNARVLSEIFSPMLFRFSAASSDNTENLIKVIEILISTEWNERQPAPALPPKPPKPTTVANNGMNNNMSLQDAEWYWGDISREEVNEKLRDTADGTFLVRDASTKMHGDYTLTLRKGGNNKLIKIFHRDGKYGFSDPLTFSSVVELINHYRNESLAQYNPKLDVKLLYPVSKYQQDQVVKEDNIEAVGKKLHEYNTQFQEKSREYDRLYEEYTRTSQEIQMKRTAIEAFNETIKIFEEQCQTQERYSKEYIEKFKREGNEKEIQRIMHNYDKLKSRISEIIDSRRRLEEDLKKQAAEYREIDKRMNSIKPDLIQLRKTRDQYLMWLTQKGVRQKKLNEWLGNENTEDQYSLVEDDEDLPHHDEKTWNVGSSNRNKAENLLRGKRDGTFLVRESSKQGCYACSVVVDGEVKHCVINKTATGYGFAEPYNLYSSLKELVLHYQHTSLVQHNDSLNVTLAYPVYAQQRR
Briefly: Proteomic TE50 (IA-DTB / TMT mass spectrometry) in Jurkat cell lysate. The class given is binding. The following applies: 1 hour at rt, 7-point dose response. A digest of the protocol:
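Cysteine engagement was read by targeted TMT MS3 of the IA-DTB-labelled, streptavidin-enriched C242 tryptic peptide. Beforehand, Jurkat lysate was exposed to a 7-point 1:5 compound series for 1 h at rt, then to 200 μM IA-DTB for 1 h. Reporter S/N curves gave TE50.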

Structures are written as SMILES.

T1 sequence (P42336 whole entry): as the sequence (P42336 whole entry) above
T1 sequence (P27986 whole entry partner): as the sequence (P27986 whole entry partner) above

In the case of `COc1cc(-c2ccccc2C)c(S(=O)(=O)N2CCC(F)(C(=O)N[C@@H](C)/C=C\S(C)(=O)=O)CC2)cn1` [Compound 190, (S,Z)-4-fluoro-1-((6-methoxy-4-(o-tolyl)pyridin-3-yl)sulfonyl)-N-(4-(methylsulfonyl)but-3-en-2-yl)piperidine-4-carboxamide], the IC50 at PIK3CA was determined as 110 nM; against PIK3CA_C242, 61 nM.
On to `COc1ccc(S(=O)(=O)N2CCC(F)(C(=O)N[C@@H](C)/C=C\S(C)(=O)=O)CC2)c(-c2ccccc2)c1` [Compound 4, (S,Z)-4-fluoro-1-((5-methoxy-[1,1′-biphenyl]-2-yl)sulfonyl)-N-(4-(methylsulfonyl)but-3-en-2-yl)piperidine-4-carboxamide], for which the IC50 was found to be 140 nM at PIK3CA and 206 nM at PIK3CA_C242.
In the case of `COc1ccc(S(=O)(=O)N2CCC(F)(C(=O)N[C@H](C)/C=C\S(C)(=O)=O)CC2)c(-c2ccccc2Cl)c1Cl` [Compound 32, 1-((2′,6-dichloro-5-methoxy-[1,1′-biphenyl]-2-yl)sulfonyl)-4-fluoro-N-((R,Z)-4-(methylsulfonyl)but-3-en-2-yl)piperidine-4-carboxamide], the IC50 stood at 930 nM on PIK3CA and 820 nM against PIK3CA_C242.
Turning to `CO/N=C/c1cccc(-c2cc(Cl)ccc2S(=O)(=O)N2CCC(F)(C(=O)N[C@@H](C)/C=C\S(C)(=O)=O)CC2)c1` [Compound 127, 1-((5-chloro-3′-((E)-(methoxyimino)methyl)-[1,1′-biphenyl]-2-yl)sulfonyl)-4-fluoro-N-((S,Z)-4-(methylsulfonyl)but-3-en-2-yl) piperidine-4-carboxamide], the IC50 on PIK3CA was found to be 1100 nM; at PIK3CA_C242 it was 960 nM.
Take `C[C@H](/C=C\S(C)(=O)=O)NC(=O)C1(F)CCN(S(=O)(=O)c2ccc(N3CCOCC3)cc2-c2ccccc2Cl)CC1` [Compound 121, (R,Z)-1-((2′-chloro-5-morpholino-[1,1′-biphenyl]-2-yl)sulfonyl)-4-fluoro-N-(4-(methylsulfonyl)but-3-en-2-yl)piperidine-4-carboxamide]: the values for the IC50 at PIK3CA and at PIK3CA_C242 were 1000 nM and 880 nM, respectively.
Regarding `CCCCOc1cccc(-c2cc(Cl)ccc2S(=O)(=O)N2CCC(F)(C(=O)N[C@@H](C)/C=C\S(C)(=O)=O)CC2)c1` [Compound 13, (S,Z)-1-((3′-butoxy-5-chloro-[1,1′-biphenyl]-2-yl)sulfonyl)-4-fluoro-N-(4-(methylsulfonyl)but-3-en-2-yl)piperidine-4-carboxamide], the IC50 at PIK3CA is 480 nM; against PIK3CA_C242, 340 nM.
Regarding `C=C(C)c1ccc(S(=O)(=O)N2CCC(F)(C(=O)N[C@H](C)/C=C\S(C)(=O)=O)CC2)c(-c2ccccc2C)c1` [Compound 110, (R,Z)-4-fluoro-1-((2′-methyl-5-(prop-1-en-2-yl)-[1,1′-biphenyl]-2-yl)sulfonyl)-N-(4-(methylsulfonyl)but-3-en-2-yl)piperidine-4-carboxamide], the IC50 was found to be 830 nM at PIK3CA and 363 nM on PIK3CA_C242.
Consider `CCc1ccc(S(=O)(=O)N2CCC(F)(C(=O)N[C@H](C)/C=C\S(C)(=O)=O)CC2)c(-c2ccccc2)c1` [Compound 112, (R,Z)-1-((5-ethyl-[1,1′-biphenyl]-2-yl)sulfonyl)-4-fluoro-N-(4-(methylsulfonyl)but-3-en-2-yl)piperidine-4-carboxamide], for which the results for the IC50 at PIK3CA and against PIK3CA_C242 were 780 nM and 660 nM, respectively.
In the case of `COc1cc(-c2ccccc2C)c(S(=O)(=O)N2CCC(F)(C(=O)N[C@H](C)/C=C\S(C)(=O)=O)CC2)cn1` [Compound 193, (R,Z)-4-fluoro-1-((6-methoxy-4-(o-tolyl)pyridin-3-yl)sulfonyl)-N-(4-(methylsulfonyl)but-3-en-2-yl)piperidine-4-carboxamide], the IC50 on PIK3CA is 290 nM; at PIK3CA_C242 it was 284 nM.
Taken in the same sequence, the figures for `C[C@H](/C=C\S(C)(=O)=O)NC(=O)C1(F)CCN(S(=O)(=O)c2ccc(OC(F)(F)F)cc2-c2ccccc2Cl)CC1` [Compound 34, (R,Z)-1-((2′-chloro-5-(trifluoromethoxy)-[1,1′-biphenyl]-2-yl)sulfonyl)-4-fluoro-N-(4-(methylsulfonyl)but-3-en-2-yl)piperidine-4-carboxamide] were 550 nM and 700 nM.
Taken in the same sequence, the figures for `C=C(C)c1ccc(S(=O)(=O)N2CCC(F)(C(=O)N[C@H](C)/C=C\S(C)(=O)=O)CC2)c(-c2ccccc2Cl)c1` [Compound 109, (R,Z)-1-((2′-chloro-5-(prop-1-en-2-yl)-[1,1′-biphenyl]-2-yl)sulfonyl)-4-fluoro-N-(4-(methylsulfonyl)but-3-en-2-yl)piperidine-4-carboxamide] were 360 nM and 280 nM.
Turning to `CC[C@@H](/C=C\S(C)(=O)=O)NC(=O)C1(F)CCN(S(=O)(=O)c2ccc(Cl)cc2-c2cccc(OC)c2)CC1` [Compound 83, (S,Z)-1-((5-chloro-3′-methoxy-[1,1′-biphenyl]-2-yl)sulfonyl)-4-fluoro-N-(1-(methylsulfonyl)pent-1-en-3-yl)piperidine-4-carboxamide], the figures for the IC50 at PIK3CA and on PIK3CA_C242 were 520 nM and 540 nM, respectively.
For `C[C@H](/C=C\S(C)(=O)=O)NC(=O)C1(F)CCN(S(=O)(=O)c2cnc(Br)cc2-c2ccccc2Cl)CC1` [Compound 277, (R,Z)-1-((6-bromo-4-(2-chlorophenyl)pyridin-3-yl)sulfonyl)-4-fluoro-N-(4-(methylsulfonyl)but-3-en-2yl)piperidine-4-carboxamide] the same measures were 97 nM and 82 nM.
In the case of `COc1ccc(S(=O)(=O)N2CCC(F)(C(=O)N[C@@H](C)/C=C\S(C)(=O)=O)CC2)c(-c2cccc(Cl)c2)c1` [Compound 7, (S,Z)-1-((3′-chloro-5-methoxy-[1,1′-biphenyl]-2-yl)sulfonyl)-4-fluoro-N-(4-(methylsulfonyl)but-3-en-2-yl)piperidine-4-carboxamide], the IC50 was found to be 90 nM on PIK3CA and 107 nM at PIK3CA_C242.
For `CC#CCOc1cccc(-c2cc(Cl)ccc2S(=O)(=O)N2CCC(F)(C(=O)N[C@@H](C)/C=C\S(C)(=O)=O)CC2)c1` [Compound 264, (S,Z)-1-((3′-(but-2-yn-1-yloxy)-5-chloro-[1,1′-biphenyl]-2-yl)sulfonyl)-4-fluoro-N-(4-(methylsulfonyl)but-3-en-2-yl)piperidine-4-carboxamide] the same measures were 480 nM and 510 nM.
Taken in the same sequence, the figures for `COc1ccc(S(=O)(=O)N2CCC(F)(C(=O)N[C@H](C)/C=C\S(C)(=O)=O)CC2)c(-c2ccccc2C)c1` [Compound 24, (R,Z)-4-fluoro-1-((5-methoxy-2′-methyl-[1,1′-biphenyl]-2-yl)sulfonyl)-N-(4-(methylsulfonyl)but-3-en-2-yl)piperidine-4-carboxamide] were 170 nM and 232 nM.
Taken in the same sequence, the figures for `C[C@H](/C=C\S(C)(=O)=O)NC(=O)C1(F)CCN(S(=O)(=O)c2ccc(N(C)C)cc2-c2ccccc2Cl)CC1` [Compound 92, (R,Z)-1-((2′-chloro-5-(dimethylamino)-[1,1′-biphenyl]-2-yl)sulfonyl)-4-fluoro-N-(4-(methylsulfonyl)but-3-en-2-yl)piperidine-4-carboxamide] were 130 nM and 139 nM.
In the case of `C[C@@H](/C=C\S(C)(=O)=O)NC(=O)C1(F)CCN(S(=O)(=O)c2ccc(Cl)cc2-c2cccc(CCO)c2)CC1` [Compound 220, (S,Z)-1-((5-chloro-3′-(2-hydroxyethyl)-[1,1′-biphenyl]-2-yl)sulfonyl)-4-fluoro-N-(4-(methylsulfonyl)but-3-en-2-yl)piperidine-4-carboxamide], the IC50 on PIK3CA is 920 nM; against PIK3CA_C242, 1530 nM.
Taken in the same sequence, the figures for `COc1ccc(S(=O)(=O)N2CCC(F)(C(=O)N[C@H](C)/C=C\S(C)(=O)=O)CC2)c(-c2ccccc2Cl)c1` [Compound 25, (R,Z)-1-((2′-chloro-5-methoxy-[1,1′-biphenyl]-2-yl)sulfonyl)-4-fluoro-N-(4-(methylsulfonyl)but-3-en-2-yl)piperidine-4-carboxamide] were 290 nM and 238 nM.
For the molecule `C=Cc1ccc(S(=O)(=O)N2CCC(F)(C(=O)N[C@H](C)/C=C\S(C)(=O)=O)CC2)c(-c2ccccc2Cl)c1` [Compound 107, (R,Z)-1-((2′-chloro-5-vinyl-[1,1′-biphenyl]-2-yl)sulfonyl)-4-fluoro-N-(4-(methylsulfonyl)but-3-en-2-yl)piperidine-4-carboxamide], the IC50 on PIK3CA worked out at 200 nM; at PIK3CA_C242, 320 nM.
For `C[C@@H](/C=C\S(C)(=O)=O)NC(=O)C1(F)CCN(S(=O)(=O)c2ccc(Cl)cc2-c2cccc(C#N)c2)CC1` [Compound 8, (S,Z)-1-((5-chloro-3′-cyano-[1,1′-biphenyl]-2-yl)sulfonyl)-4-fluoro-N-(4-(methylsulfonyl)but-3-en-2-yl)piperidine-4-carboxamide] the same measures were 690 nM and 1350 nM.
As for `COc1ccc(S(=O)(=O)N2CCC(F)(C(=O)N[C@@H](C)/C=C\S(C)(=O)=O)CC2)c(-c2ccccc2OC)c1` [Compound 219, (S,Z)-1-((2′,5-dimethoxy-[1,1′-biphenyl]-2-yl)sulfonyl)-4-fluoro-N-(4-(methylsulfonyl)but-3-en-2-yl)piperidine-4-carboxamide], the values for the IC50 on PIK3CA and on PIK3CA_C242 were 970 nM and 1090 nM, respectively.
Consider `C[C@@H](/C=C\S(C)(=O)=O)NC(=O)C1(F)CCN(S(=O)(=O)c2ccc(Cl)cc2-c2cccc(OC3CCC3)c2)CC1` [Compound 263, (S,Z)-1-((5-chloro-3′-cyclobutoxy-[1,1′-biphenyl]-2-yl)sulfonyl)-4-fluoro-N-(4-(methylsulfonyl)but-3-en-2-yl)piperidine-4-carboxamide], for which the figures for the IC50 on PIK3CA and against PIK3CA_C242 were 1000 nM and 930 nM, respectively.

(Values after patent US20250026721A1, “COMPOUNDS AND METHODS FOR MODULATING RAS-PI3K” (Vividion Therapeutics, Inc., priority 2023, published 2025).)
